Source: PubChem BioAssay (NCI)
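GI50: concentration for 50% inhibition of growth. The concentration for full growth arrest is given as TGI.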

Assays:
Assay in all cases: NCI-60 cell line screen, 384-well format
[1] = system: RPMI-8226 leukemia
[2] = system: OVCAR-3 ovarian
[3] = system: IGROV1 ovarian
[4] = system: M14 melanoma
[5] = system: MOLT-4 leukemia
[6] = system: BT-549 breast
[7] = system: HS 578T breast
[8] = system: EKVX NSCLC
[9] = system: HOP-92 NSCLC
[10] = system: NCI-H522 lung
[11] = system: ACHN renal
[12] = system: MDA-MB-231 breast
[13] = system: COLO 205 colon
[14] = system: SK-MEL-5 melanoma
[15] = system: SF-268 CNS
[16] = system: HT29 colon
[17] = system: MDA-MB-468 breast
[18] = system: LOX IMVI melanoma
[19] = system: NCI-H23 lung
[20] = system: HCT-15 colon
[21] = system: NCI/ADR-RES ovarian
[22] = system: OVCAR-5 ovarian
[23] = system: SK-MEL-28 melanoma
[24] = system: RXF 393 renal
[25] = system: UO-31 renal
[26] = system: SNB-19 CNS
[27] = system: T-47D breast
[28] = system: MALME-3M melanoma
[29] = system: DU-145 prostate
[30] = system: A498 renal
[31] = system: K-562 leukemia
[32] = system: UACC-62 melanoma
[33] = system: CCRF-CEM leukemia
[34] = system: 786-0 renal
[35] = system: A549 NSCLC
[36] = system: SF-295 CNS
[37] = system: HOP-62 NSCLC
[38] = system: MDA-MB-435 melanoma
[39] = system: SR leukemia
[40] = system: NCI-H226 lung
[41] = system: PC-3 prostate
[42] = system: SF-539 CNS
[43] = system: UACC-257 melanoma
[44] = system: NCI-H322M lung
[45] = system: OVCAR-4 ovarian
[46] = system: NCI-H460 NSCLC
[47] = system: MCF7 breast
[48] = system: SK-OV-3 ovarian
[49] = system: KM12 colon
[50] = system: TK-10 renal
[51] = system: SNB-75 CNS
[52] = system: SN12C renal
[53] = system: SW-620 colon
[54] = system: CAKI-1 renal
[55] = system: HL-60(TB) leukemia
[56] = system: OVCAR-8 ovarian
[57] = system: HCC-2998 colon

COc1cc2c(cc1-c1c(C)noc1C)cc(C)c(=O)n2Cc1ccccn1
GI50 [1]: 106 nM
TGI [1]: 316 nM
GI50 [2]: 374 nM
TGI [2]: 1650 nM
GI50 [3]: 566 nM
TGI [3]: 3330 nM
GI50 [4]: 600 nM
TGI [4]: 21800 nM
GI50 [5]: 616 nM
TGI [5]: 1920 nM
GI50 [6]: 262 nM
TGI [6]: 1680 nM
GI50 [7]: 192 nM
TGI [7]: 671 nM
GI50 [8]: 4540 nM
TGI [8]: > 100000 nM
GI50 [9]: 234 nM
TGI [9]: 4540 nM
GI50 [10]: 202 nM
TGI [10]: 817 nM
GI50 [11]: 1050 nM
TGI [11]: > 100000 nM
GI50 [12]: 367 nM
TGI [12]: 16200 nM
GI50 [13]: 498 nM
TGI [13]: 13300 nM
GI50 [14]: 527 nM
TGI [14]: 2380 nM
GI50 [15]: 2010 nM
TGI [15]: 11300 nM
GI50 [16]: 376 nM
TGI [16]: 5680 nM
GI50 [17]: 226 nM
TGI [17]: 693 nM
GI50 [18]: 321 nM
TGI [18]: 1090 nM
GI50 [19]: 742 nM
TGI [19]: 5190 nM
GI50 [20]: 282 nM
TGI [20]: 1550 nM
GI50 [21]: 371 nM
TGI [21]: 2470 nM
GI50 [22]: 496 nM
TGI [22]: 21300 nM
GI50 [23]: 628 nM
TGI [23]: 6770 nM
GI50 [24]: 1980 nM
TGI [24]: 15300 nM
GI50 [25]: 2890 nM
TGI [25]: > 100000 nM
GI50 [26]: 1130 nM
TGI [26]: 23600 nM
GI50 [27]: 313 nM
TGI [27]: 3060 nM
GI50 [28]: 274 nM
TGI [28]: 2180 nM
GI50 [29]: 6450 nM
TGI [29]: > 100000 nM
GI50 [30]: 418 nM
TGI [30]: 12400 nM
GI50 [31]: 448 nM
TGI [31]: 2780 nM
GI50 [32]: 190 nM
TGI [32]: 1440 nM
GI50 [33]: 338 nM
TGI [33]: 1650 nM
GI50 [34]: 812 nM
TGI [34]: 19200 nM
GI50 [35]: 557 nM
TGI [35]: 18300 nM
GI50 [36]: 1750 nM
TGI [36]: 24900 nM
GI50 [37]: 415 nM
TGI [37]: 16500 nM
GI50 [38]: 1010 nM
TGI [38]: 2420 nM
GI50 [39]: 140 nM
TGI [39]: 1150 nM
GI50 [40]: 646 nM
TGI [40]: 5740 nM
GI50 [41]: 1820 nM
TGI [41]: > 100000 nM
GI50 [42]: 805 nM
TGI [42]: 7540 nM
GI50 [43]: 373 nM
TGI [43]: 4710 nM
GI50 [44]: 1090 nM
TGI [44]: 31700 nM
GI50 [45]: 188 nM
TGI [45]: 586 nM
GI50 [46]: 2120 nM
TGI [46]: 17500 nM
GI50 [47]: 257 nM
TGI [47]: 2480 nM
GI50 [48]: 433 nM
TGI [48]: 3610 nM
GI50 [49]: 691 nM
TGI [49]: 20300 nM
GI50 [50]: 367 nM
TGI [50]: 3810 nM
GI50 [51]: 487 nM
TGI [51]: > 100000 nM
GI50 [52]: 2180 nM
TGI [52]: 21500 nM
GI50 [53]: 1680 nM
TGI [53]: 14400 nM
GI50 [54]: 342 nM
TGI [54]: 18500 nM
GI50 [55]: 118 nM
TGI [55]: 255 nM
GI50 [56]: 430 nM
TGI [56]: 9450 nM
GI50 [57]: 324 nM
TGI [57]: 1410 nM
